Results reported in patent publication US20250275540A1, “USE OF PROTOPORPHYRINOGEN OXIDASE” (BEIJING DABEINONG BIOTECHNOLOGY CO., LTD., priority 2022, published 2025).

System: transgenic maize plants
Test: Detection of the herbicide tolerance of the transgenic maize plants
Type: in vivo
Details: for The grade of pesticide damage/plant: 0 / The grade of pesticide damage/plant: 1 / The grade of pesticide damage/plant: 2 / The grade of pesticide damage/plant: 3: 7 DAT
Description: The transformed Arabidopsis thaliana T1 plants were initially selected using glufosinate herbicide. The Arabidopsis thaliana T1 plants (PPOA-01) into which the PPOA-01 nucleotide sequence was introduced, the Arabidopsis thaliana T1 plants (PPOB-01) into which the PPOB-01 nucleotide sequence was introduced, the Arabidopsis thaliana T1 plants (PPOC-01) into which the PPOC-01 nucleotide sequence was introduced, the Arabidopsis thaliana T1 plants (PPOD-01) into which the PPOD-01 nucleotide sequence was introduced, the Arabidopsis thaliana T1 plants (PPOE-01) into which the PPOE-01 nucleotide sequence was introduced, the Arabidopsis thaliana T1 plants (PPOF-01) into which the PPOF-01 nucleotide sequence was introduced, the Arabidopsis thaliana T1 plants (PPO-AP-01) into which the PPO-AP-01 nucleotide sequence was introduced, and the Arabidopsis thaliana T1 plants (control vector) into which the control vector was introduced, the wild-type Arabidopsis thaliana plants (CK) (with 24 plants being included in each genotype) (18 days after sowing) were sprayed with saflufenacil at three concentrations (25 g ai/ha (one-fold field concentration, 1×), 100 g ai/ha (four-fold field concentration, 4×), and 0 g ai/ha (water, 0×)), oxyfluorfen at three concentrations (180 g ai/ha (one-fold field concentration, 1×), 720 g ai/ha (four-fold field concentration, 4×), and 0 g ai/ha (water, 0×)), and flumioxazin at three concentrations (60 g ai/ha (one-fold field concentration, 1×), 240 g ai/ha (four-fold field concentration, 4×), and 0 g ai/ha (water, 0×) to determine the tolerance of Arabidopsis thaliana to the herbicides. After 7 days of spraying (7 DAT), the damage level of each plant caused by the herbicide was evaluated according to the average of the damage levels (%) of plants (the average of the damage levels (%) of plants=the injured leaf area/the total leaf area×100%), i.e., the grade of pesticide damage: grade 0 means that the growth status of plants is essentially consistent with those sprayed with the blank solvent (water); grade 1 means that the average of the damage levels of plants is less than 10%; grade 2 means that the average of the damage levels of plants is greater than 10%; and grade 3 means that the average of the damage levels of plants is 100%. The plants having a growth status falling within grades 0 and 1 are classified as highly resistant plants; those having a growth status falling within grade 2 are classified as poorly resistant plants; and those having a growth status falling within grade 3 are classified as non-resistant plants.
The maize plants into which the PPOA-02 nucleotide sequence was introduced, the maize plants into which the PPOB-02 nucleotide sequence was introduced, the maize plants into which the PPOC-02 nucleotide sequence was introduced, the maize plants into which the PPOD-02 nucleotide sequence was introduced, the maize plants into which the PPOE-02 nucleotide sequence was introduced, the maize plants into which the PPOF-02 nucleotide sequence was introduced, the maize plants into which the PPO-AP-02 nucleotide sequence was introduced, the maize plants (control vector) into which the control vector was introduced, and the wild-type maize plants (CK) (with 16 plants being included in each genotype) (18 days after sowing) were taken and sprayed with saflufenacil at three concentrations (50 g ai/ha (two-fold field concentration, 2×), 100 g ai/ha (four-fold field concentration, 4×), and 0 g ai/ha (water, 0×)), oxyfluorfen at three concentrations (360 g ai/ha (two-fold field concentration, 2×), 720 g ai/ha (four-fold field concentration, 4×), and 0 g ai/ha (water, 0×), and flumioxazin at three concentrations (120 g ai/ha (two-fold field concentration, 2×), 240 g ai/ha (four-fold field concentration, 4×), and 0 g ai/ha (water, 0×) to determine the tolerance of maize plants to the herbicides. […]

[1] = genotype Control vector, 50 g ai/ha
[2] = genotype Control vector, 100 g ai/ha
[3] = genotype PPO-AP-02, 100 g ai/ha

CC(C)N(C)S(=O)(=O)NC(=O)c1cc(-n2c(=O)cc(C(F)(F)F)n(C)c2=O)c(F)cc1Cl [saflufenacil, N′-[2-chloro-4-fluoro-5-(3-methyl-2,6-dioxo-4-(trifluoromethyl)-3,6-dihydro-1 (2H)-pyrimidine)benzoyl]-N-isopropyl-N-methylsulfamide]
The grade of pesticide damage/plant: 0 (genotype CK, 50 g ai/ha): 0 plant | The grade of pesticide damage/plant: 1 (genotype CK, 50 g ai/ha): 0 plant | The grade of pesticide damage/plant: 2 (genotype CK, 50 g ai/ha): 0 plant | The grade of pesticide damage/plant: 3 (genotype CK, 50 g ai/ha): 16 plant | The grade of pesticide damage/plant: 0 (genotype CK, 100 g ai/ha): 0 plant | The grade of pesticide damage/plant: 1 (genotype CK, 100 g ai/ha): 0 plant | The grade of pesticide damage/plant: 2 (genotype CK, 100 g ai/ha): 0 plant | The grade of pesticide damage/plant: 3 (genotype CK, 100 g ai/ha): 16 plant | The grade of pesticide damage/plant: 0 [1]: 0 plant | The grade of pesticide damage/plant: 1 [1]: 0 plant | The grade of pesticide damage/plant: 2 [1]: 0 plant | The grade of pesticide damage/plant: 3 [1]: 16 plant | The grade of pesticide damage/plant: 0 [2]: 0 plant | The grade of pesticide damage/plant: 1 [2]: 0 plant | The grade of pesticide damage/plant: 2 [2]: 0 plant | The grade of pesticide damage/plant: 3 [2]: 16 plant | The grade of pesticide damage/plant: 0 (genotype PPO-AP-02, 50 g ai/ha): 0 plant | The grade of pesticide damage/plant: 1 (genotype PPO-AP-02, 50 g ai/ha): 0 plant | The grade of pesticide damage/plant: 2 (genotype PPO-AP-02, 50 g ai/ha): 7 plant | The grade of pesticide damage/plant: 3 (genotype PPO-AP-02, 50 g ai/ha): 9 plant | The grade of pesticide damage/plant: 0 [3]: 0 plant | The grade of pesticide damage/plant: 1 [3]: 0 plant | The grade of pesticide damage/plant: 2 [3]: 1 plant | The grade of pesticide damage/plant: 3 [3]: 15 plant | tolerance to the herbicide (in words) (genotype PPO-AP-02, four-fold field concentration): basically no tolerance | share of the plants that exhibited no tolerance (genotype PPO-AP-02, two-fold field concentration): about 56% | The grade of pesticide damage/plant: 0 (genotype PPOA-02, 50 g ai/ha): 16 plant | The grade of pesticide damage/plant: 1 (genotype PPOA-02, 50 g ai/ha): 0 plant | The grade of pesticide damage/plant: 2 (genotype PPOA-02, 50 g ai/ha): 0 plant | The grade of pesticide damage/plant: 3 (genotype PPOA-02, 50 g ai/ha): 0 plant | The grade of pesticide damage/plant: 0 (genotype PPOA-02, 100 g ai/ha): 16 plant | The grade of pesticide damage/plant: 1 (genotype PPOA-02, 100 g ai/ha): 0 plant | The grade of pesticide damage/plant: 2 (genotype PPOA-02, 100 g ai/ha): 0 plant | The grade of pesticide damage/plant: 3 (genotype PPOA-02, 100 g ai/ha): 0 plant | The grade of pesticide damage/plant: 0 (genotype PPOB-02, 50 g ai/ha): 16 plant | The grade of pesticide damage/plant: 1 (genotype PPOB-02, 50 g ai/ha): 0 plant | The grade of pesticide damage/plant: 2 (genotype PPOB-02, 50 g ai/ha): 0 plant | The grade of pesticide damage/plant: 3 (genotype PPOB-02, 50 g ai/ha): 0 plant | The grade of pesticide damage/plant: 0 (genotype PPOB-02, 100 g ai/ha): 16 plant | The grade of pesticide damage/plant: 1 (genotype PPOB-02, 100 g ai/ha): 0 plant | The grade of pesticide damage/plant: 2 (genotype PPOB-02, 100 g ai/ha): 0 plant | The grade of pesticide damage/plant: 3 (genotype PPOB-02, 100 g ai/ha): 0 plant | The grade of pesticide damage/plant: 0 (genotype PPOC-02, 50 g ai/ha): 16 plant | The grade of pesticide damage/plant: 1 (genotype PPOC-02, 50 g ai/ha): 0 plant | The grade of pesticide damage/plant: 2 (genotype PPOC-02, 50 g ai/ha): 0 plant | The grade of pesticide damage/plant: 3 (genotype PPOC-02, 50 g ai/ha): 0 plant | The grade of pesticide damage/plant: 0 (genotype PPOC-02, 100 g ai/ha): 16 plant | The grade of pesticide damage/plant: 1 (genotype PPOC-02, 100 g ai/ha): 0 plant | The grade of pesticide damage/plant: 2 (genotype PPOC-02, 100 g ai/ha): 0 plant | The grade of pesticide damage/plant: 3 (genotype PPOC-02, 100 g ai/ha): 0 plant | The grade of pesticide damage/plant: 0 (genotype PPOD-02, 50 g ai/ha): 16 plant | The grade of pesticide damage/plant: 1 (genotype PPOD-02, 50 g ai/ha): 0 plant | The grade of pesticide damage/plant: 2 (genotype PPOD-02, 50 g ai/ha): 0 plant | The grade of pesticide damage/plant: 3 (genotype PPOD-02, 50 g ai/ha): 0 plant | The grade of pesticide damage/plant: 0 (genotype PPOD-02, 100 g ai/ha): 16 plant | The grade of pesticide damage/plant: 1 (genotype PPOD-02, 100 g ai/ha): 0 plant | The grade of pesticide damage/plant: 2 (genotype PPOD-02, 100 g ai/ha): 0 plant | The grade of pesticide damage/plant: 3 (genotype PPOD-02, 100 g ai/ha): 0 plant | The grade of pesticide damage/plant: 0 (genotype PPOE-02, 50 g ai/ha): 16 plant | The grade of pesticide damage/plant: 1 (genotype PPOE-02, 50 g ai/ha): 0 plant | The grade of pesticide damage/plant: 2 (genotype PPOE-02, 50 g ai/ha): 0 plant | The grade of pesticide damage/plant: 3 (genotype PPOE-02, 50 g ai/ha): 0 plant | The grade of pesticide damage/plant: 0 (genotype PPOE-02, 100 g ai/ha): 16 plant | The grade of pesticide damage/plant: 1 (genotype PPOE-02, 100 g ai/ha): 0 plant | The grade of pesticide damage/plant: 2 (genotype PPOE-02, 100 g ai/ha): 0 plant | The grade of pesticide damage/plant: 3 (genotype PPOE-02, 100 g ai/ha): 0 plant | The grade of pesticide damage/plant: 0 (genotype PPOF-02, 50 g ai/ha): 16 plant | The grade of pesticide damage/plant: 1 (genotype PPOF-02, 50 g ai/ha): 0 plant | The grade of pesticide damage/plant: 2 (genotype PPOF-02, 50 g ai/ha): 0 plant | The grade of pesticide damage/plant: 3 (genotype PPOF-02, 50 g ai/ha): 0 plant | The grade of pesticide damage/plant: 0 (genotype PPOF-02, 100 g ai/ha): 10 plant | The grade of pesticide damage/plant: 1 (genotype PPOF-02, 100 g ai/ha): 6 plant | The grade of pesticide damage/plant: 2 (genotype PPOF-02, 100 g ai/ha): 0 plant | The grade of pesticide damage/plant: 3 (genotype PPOF-02, 100 g ai/ha): 0 plant | tolerance to the herbicide (in words) (genotypes PPOA-02 to PPOF-02, four-fold field concentration): high-resistant tolerance | tolerance to the herbicide (in words) (genotypes PPOA-02 to PPOF-02, two-fold field concentration): high-resistant tolerance
